Assay results as given in patent US12570614B2, “Phenyl amino pyrimidine compounds and uses thereof” (GlaxoSmithKline LLC, priority 2007, dated 2026).

Tested on: Ba/F3 TelJAK2 cells
Experiment: Subcutaneous tumour model of Ba/F3 TelJAK2 cells in nude mice
Assay type: in vivo, mouse
Conditions: 5 mg/kg i.v. 3× weekly, after 14 days of dosing, t-test p<0.05
Procedure: Dosing commenced 11 days post-tumour cell inoculation, when tumours were palpable (mean tumour volume of 6 mm^3). Tumour dimensions were measured twice weekly.

CC(=O)O[C@H]1C(=O)[C@@]2(C)[C@H]([C@H](OC(=O)c3ccccc3)[C@]3(O)C[C@H](OC(=O)[C@H](O)[C@@H](NC(=O)c4ccccc4)c4ccccc4)C(C)=C1C3(C)C)[C@]1(OC(C)=O)CO[C@@H]1C[C@@H]2O [Taxol, reference compound]
tumour volumes compared to Vehicle Control Treated Group: smaller tumour volumes
